Laboratory results: patent publication US5491135A (priority 1993, dated 1996)
Where “and” joins values, the source holds several entries; their conditions need not be identical. Identical values can stand only once. Entries after “also recorded” stand apart in the source; their conditions may differ. Like-named read-outs stand apart in the source and are kept apart here.

Assays:
[1] = tested on: HCMV strain AD 169; experiment: Rabbit HCMV ascending dose efficacy and time course recovery (Example 7); details: for Vitreo-retinal score: sum of both eyes
[2] = tested on: clinical HCMV isolate; format: cell-based
[3] = tested on: HCMV strain AD169; format: cell-based
[4] = tested on: HCMV strain AD 169; experiment: Rabbit model of HCMV chorioretinitis (Example 5); format: in vivo, pigmented rabbit; details: for histology: preliminary
Method: A total of 32 pigmented rabbits were used in this study. Animals were evaluated by slit lamp and indirect ophthalmoscopy to determine normal ocular morphology and lack of preexisting pathology. Animals were handled as follows:
[1] On day 0, all rabbits were inoculated by mid-vitreal injection of 10^5 PFU HCMV strain AD 169 in 100 μl.
[2] Animals were maintained in individual cages and developing chorioretinal HCMV disease was monitored daily. On day 2 PI, HCMV-inoculated animals were divided into 8 groups of 4 rabbits each with matched chorioretinal disease scores. The HCMV-infected rabbits received intravenous therapy as indicated below:
Group #1--4 animals, intravenous injection of high dose experimental drug (50 mg/kg) daily from day 2 through 10 PI. A total of 9 IV injections.
Group #3--4 animals, intravenous injection of low dose experimental drug (20 mg/kg) daily from day 2 through 10 PI. A total of 9 IV injections.
Group #4--4 animals, intravenous injection of high dose experimental drug (50 mg/kg) daily from day 2 through 10 PI (a total of 9 IV injections) plus high dose DHPG 10 mg/kg/day in 2 divided doses from day 2 through 10 PI (a total of 18 IV injections).
Group #5--4 animals, intravenous injection of high dose experimental drug (50 mg/kg) daily from day 2 through 10 PI (a total of 9 IV injections) plus low dose DHPG 5 mg/kg/day in 2 divided doses from day 2 through 10 PI (a total of 18 IV injections).
Group #6--4 animals, intravenous injection of low dose experimental drug (20 mg/kg) daily from day 2 through 10 PI (a total of 9 IV injections) plus low dose DHPG 5 mg/kg/day in 2 divided doses from day 2 through 10 PI (a total of 18 IV injections).
Group #7--4 animals, intravenous injection of DHPG 10 mg/kg/day in 2 divided doses from day 2 through day 10 PI. A total of 18 IV injections.
Group #8--4 animals, intravenous injection of sterile saline on days 2 through 10 PI.
[3] All animals received daily indirect ophthalmoscopic examinations to evaluate clinical HCMV disease progression (From days 2 through 10 PI). The indirect ophthalmoscopic examinations were performed independently by two readers who were masked as to the therapy that the rabbits were receiving.
[4] All animals were sacrificed on day 12 PI. Chorioretina and iris tissues and vitreous samples will be removed and processed for HCMV recovery by cell sonicate assay on Hs68 cell monolayers. Selected ocular and lung tissue samples were processed for histochemistry to evaluate HCMV-induced ocular pathology in treated and non-treated groups.
The clinical, virus recovery and histological efficacy results for all drug-treated intravenous therapy groups were correlated with each other and with the placebo therapy group.

[5] = day 6, PALA 75 mg/kg/d, with or without steroid
[6] = day 6, PALA 50 or DHPG 10 mg/kg/d
[7] = day 7, PALA 75 mg/kg/d, with or without steroid
[8] = day 12, PALA 75 mg/kg/d, with or without steroid
[9] = day 12, PALA 50 or DHPG 10 mg/kg/d
[10] = PALA 50 mg/kg every other day i.v.
[11] = PALA 20 daily, alone or + DHPG 5 mg/kg i.v.
[12] = PALA 50 daily, DHPG 10/day, or PALA 50 + DHPG 10 or 5 mg/kg i.v.

For `O=C(O)C[C@H](NC(=O)CP(=O)(O)O)C(=O)O` [PALA], which “HCMV Titer, OD” value [1, 5] is on record?
The value was 10^3 pfu.

What about the “HCMV Titer, OS” value [1, 5] of the same compound?
The value was 10^4 pfu.

What about the HCMV recovery frequency [1, 5] of the same compound?
Its HCMV recovery frequency is 3/4 and 2/4.

What about the “Optic neuritis score (ONH)” value [1, 5] of the same compound?
Its value is 2.0.

What about the “HCMV Recovered, OD” value ([1]; day 6, PALA 100 mg/kg/d) of the same compound?
The value was “+”.

And the “HCMV Recovered, OS” value ([1]; day 6, PALA 100 mg/kg/d)?
The value was “- and +”.

And the “HCMV Titer, OD” value ([1]; day 6, PALA 100 mg/kg/d)?
Its value is 10^2 pfu.

What about the “HCMV Titer, OS” value ([1]; day 6, PALA 100 mg/kg/d) of the same compound?
Its value is 10^3 pfu.

And the HCMV recovery frequency ([1]; day 6, PALA 100 mg/kg/d)?
Its HCMV recovery frequency is 3/4.

What about the “Optic neuritis score (ONH)” value ([1]; day 6, PALA 100 mg/kg/d) of the same compound?
Its value is 4.0.

And the Vitreo-retinal score ([1]; day 6, PALA 100 mg/kg/d)?
The Vitreo-retinal score was 4.0.

And the “Average HCMV titer” value [1, 6]?
The value was 10^2 pfu.

And the “HCMV Recovered, OD” value [1, 6]?
The value was “+”.

And the “HCMV Recovered, OS” value [1, 6]?
The value was “+”.

And the “HCMV Titer, OD” value [1, 6]?
The value was 10^2 pfu.

What about the HCMV recovery frequency [1, 6] of the same compound?
Its HCMV recovery frequency is 4/4.

What about the “Optic neuritis score (ONH)” value [1, 6] of the same compound?
The value was 1.0 and 0.5.

And the Vitreo-retinal score [1, 6]?
The Vitreo-retinal score was 0.75 and 0.6.

And the “Optic neuritis score (ONH)” value [1, 7]?
The value was 0.

And the Vitreo-retinal score [1, 7]?
Its Vitreo-retinal score is 5.0.

And the “Optic neuritis score (ONH)” value ([1]; day 7, PALA 100 mg/kg/d)?
The value was 2.5 and 4.0.

And the Vitreo-retinal score ([1]; day 7, PALA 100 mg/kg/d)?
The Vitreo-retinal score was 3.25 and 4.25.

And the Vitreo-retinal score ([1]; day 7, PALA 50 or DHPG 10 mg/kg/d)?
Its Vitreo-retinal score is 0.4.

What about the “HCMV Recovered, OD” value [1, 8] of the same compound?
The value was “-”.

What about the “HCMV Recovered, OS” value [1, 8] of the same compound?
Its value is “-”.

And the “HCMV Recovered, OD” value ([1]; day 12, PALA 100 mg/kg/d)?
The value was “-”.

And the “HCMV Recovered, OS” value ([1]; day 12, PALA 100 mg/kg/d)?
The value was “-”.

What about the “HCMV Recovered, OD” value [1, 9] of the same compound?
Its value is “-”.

What about the “HCMV Recovered, OS” value [1, 9] of the same compound?
Its value is “-”.

And the “reduction of HCMV titer” value [2]?
Its value is “effective in reducing the titer”.

What about the log reduction at 10 µg/mL ([2]; Human betaherpesvirus 5, Hs68, read-out: viral yield reduction) of the same compound?
Its log reduction at 10 µg/mL is 2 to 3.

What about the “Cell associated HCMV titer” value ([2]; day 0 PI) of the same compound?
The value was 10^2 PFU/ml.

And the “Cell free (supernatant) HCMV titer” value ([2]; day 0 PI)?
The value was 10^5 PFU/ml.

And the “Cell associated HCMV titer” value ([2]; day 1 PI)?
The value was 10^3 PFU/ml.

What about the “Cell free (supernatant) HCMV titer” value ([2]; day 1 PI) of the same compound?
The value was 10^2 PFU/ml.

And the “Cell associated HCMV titer” value ([2]; day 2 PI)?
Its value is 10^2 PFU/ml.

What about the “Cell free (supernatant) HCMV titer” value ([2]; day 2 PI) of the same compound?
Its value is 10^1 PFU/ml.

And the “Cell associated HCMV titer” value ([2]; day 3 PI)?
The value was 10^1 PFU/ml.

And the “Cell free (supernatant) HCMV titer” value ([2]; day 3 PI)?
Its value is 10^2 PFU/ml.

And the “Cell associated HCMV titer” value ([2]; day 4 PI)?
The value was 10^1 PFU/ml.

And the “Cell free (supernatant) HCMV titer” value ([2]; day 4 PI)?
The value was 10^1 PFU/ml.

And the “Cell associated HCMV titer” value ([2]; day 5 PI)?
Its value is 0 PFU/ml.

And the “Cell free (supernatant) HCMV titer” value ([2]; day 5 PI)?
Its value is 10^1 PFU/ml.

What about the “Cell associated HCMV titer” value ([2]; day 6 PI) of the same compound?
Its value is 10^1 PFU/ml.

What about the “Cell associated HCMV titer” value ([2]; day 7 PI) of the same compound?
Its value is 10^1 PFU/ml.

What about the log reduction at 10 µg/mL ([3]; Human betaherpesvirus 5, AD169, Hs68, read-out: viral yield reduction) of the same compound?
The log reduction at 10 µg/mL was 2 to 3.

What about the “reduction of HCMV titer” value ([3]; PALA 3 μg/ml, DHPG 19 μg/ml) of the same compound?
The value was “effective in reducing HCMV titers”.

And the “Cell associated HCMV titer” value ([3]; day 0 PI)?
The value was 10^2 PFU/ml.

And the “Cell free (supernatant) HCMV titer” value ([3]; day 0 PI)?
The value was 10^5 PFU/ml.

And the “Cell associated HCMV titer” value ([3]; day 1 PI)?
Its value is 10^3 PFU/ml.

And the “Cell free (supernatant) HCMV titer” value ([3]; day 1 PI)?
The value was 10^1 PFU/ml.

And the “Cell associated HCMV titer” value ([3]; day 2 PI)?
The value was 10^1 PFU/ml.

And the “Cell free (supernatant) HCMV titer” value ([3]; day 2 PI)?
The value was 10^1 PFU/ml.

And the “Cell associated HCMV titer” value ([3]; day 3 PI)?
Its value is 10^1 PFU/ml.

And the “Cell free (supernatant) HCMV titer” value ([3]; day 3 PI)?
Its value is 10^3 PFU/ml.

What about the “Cell associated HCMV titer” value ([3]; day 4 PI) of the same compound?
The value was 10^1 PFU/ml.

And the “Cell free (supernatant) HCMV titer” value ([3]; day 4 PI)?
The value was 10^2 PFU/ml.

And the “Cell associated HCMV titer” value ([3]; day 5 PI)?
Its value is 10^1 PFU/ml.

And the “Cell free (supernatant) HCMV titer” value ([3]; day 5 PI)?
Its value is 10^1 PFU/ml.

What about the “Cell associated HCMV titer” value ([3]; day 6 PI) of the same compound?
Its value is 10^1 PFU/ml.

And the “Cell associated HCMV titer” value ([3]; day 7 PI)?
Its value is 0 PFU/ml.

And the histology ([4]; PALA 20 mg/kg daily i.v.)?
The histology was “diffuse disease with moderate to severe chorioretinal disease”.

And the histology ([4]; PALA 50 mg/kg daily i.v.)?
Its histology is “moderate areas of chorioretinal HCMV disease restricted to the inner retina”.

What about the “HCMV recovery day 12 PI” value [4, 10] of the same compound?
Its value is “No HCMV was recovered”.

What about the “clinical efficacy” value [4, 10] of the same compound?
The value was “marginally effective”.

What about the “lung appearance at sacrifice” value [4, 10] of the same compound?
Its value is “clear and non congested”.

And the “optic nerve head edema and redness” value [4, 10]?
Its value is “severe on days 3-4 PI”.

And the vitreitis severity [4, 10]?
The vitreitis severity was “moderate to severe levels within 3-4 days post inoculation”.

And the “HCMV recovery day 12 PI” value [4, 11]?
Its value is “No HCMV was recovered”.

And the “clinical efficacy” value [4, 11]?
Its value is “not effective”.

What about the “HCMV recovery day 12 PI” value [4, 12] of the same compound?
Its value is “No HCMV was recovered”.

And the “clinical efficacy” value [4, 12]?
The value was “only marginally effective; also recorded: not effective”.

And the “lung appearance at sacrifice” value [4, 12]?
Its value is “clear and non congested”.

And the vitreitis severity [4, 12]?
The vitreitis severity was “moderate levels within 3-4 days post inoculation”.

And the interstitial pneumonitis ([4]; rabbit, in vivo)?
Its interstitial pneumonitis is “prevented interstitial pneumonitis”.
